Assay results: patent US9107948B2, “Compounds for diagnosing diseases associated with the expression of MUC5AC” (Guerbet, priority 2010, dated 2015)
Values joined by “and” are separate entries in the source; they are usually repeats but may differ in a detail not shown here. Identical values can stand only once. Positions of bridges follow the written chain, without caps; N, C: chain ends. Residues, ends and D or L forms follow the SMILES beside them. No end group written: not given here.

Legend:
rat MUC5AC glycoprotein = assay: ELISA on MUC5AC purified from rat stomach; format: binding; settings: ELISA (FIG. 2), read-out: apparent dissociation constant K*d
Experimental: (§1) The interaction between the peptide and MUC5AC is evaluated by means of an ELISA assay. The mucin MUC5AC (purified from pieces of human tumor on the basis of mucin extraction and purification protocols described in literature) is immobilized on a plate at the concentration of 12.5 μg/ml overnight at 4° C. The nonspecific sites are then saturated in a buffer enriched with milk, for 2 hours at 4° C. After several rinses, the peptide CPSIYPLLC (SEQ ID No: 2) coupled to biotin is incubated at increasing concentrations (10^−3M and 10^−6M) for 2 hours at 37° C. The biotinylated peptides bound to MUC5AC are visualized using goat anti-biotin antibodies incubated for one hour at ambient temperature and then diluted in PBS at 1 μg/ml. After removal of the unbound antibodies, a second incubation for one hour at ambient temperature is carried out in the presence of peroxidase-labeled anti-goat antibodies at 0.2 μg/ml, diluted in PBS supplemented with 0.1% of Tween-20. The peroxidase coloration reaction is carried out in the presence of H2O2-enriched ABTS. The measurement of the OD at 405 nm makes it possible to calculate the K*d MUC5AC value. The interaction between the peptide and MUC5AC is also evaluated by means of the previously described ELISA assay on the mucin MUC5AC purified beforehand from mouse and rat stomach.

[1] = biological target: mouse MUC5AC glycoprotein; assay: ELISA on MUC5AC purified from mouse stomach; format: binding; settings: ELISA (FIG. 2), read-out: apparent dissociation constant K*d
Experimental: as §1

MUC5AC = biological target: T1, MUC5AC (Homo sapiens, UniProt P98088); assay: Labeling of tissue sections with biotinylated peptide (specificity); settings: FIG. 4
T1 construct: Sections of healthy gastric and colonic mucosae and of human colorectal adenoma; from tissue; host or cells: paraffin sections of human gastric epithelium and colorectal adenoma
Experimental: (§2) Sections of healthy gastric and colonic mucosae and of human colorectal adenoma (5 μm thick) were fixed for 24 h with 4% paraformaldehyde and embedded in paraffin. For the labeling, the sections were first of all deparaffinized in toluene and rehydrated in 95% alcohol. After rinsing in water, the slides are brought to boiling for 10 minutes in a citrate buffer (50 mM, pH 4). Once the temperature of the buffer has returned to 25-30° C., the slides are then rinsed with PBS and then successively incubated for 15 minutes in a 0.15% hydrogen peroxide (H2O2) solution and a kit for blocking the endogenous biotin for 1 h. The sections are then blocked using a milk-enriched buffer for 1 h at ambient temperature, and are then incubated at 4° C. for 18 h with the peptides at various concentrations (20 μM, 10 μM, 1 μM, 0.2 μM, 0.04 μM) or the antibodies (MUC5AC: PM8 at a 1/100 dilution and MUC2: Lum2-3 at a 1/100 dilution) diluted in PBS. The biotinylated peptides bound to the target are visualized using goat anti-biotin antibodies incubated for one hour at ambient temperature and then diluted in PBS at 1 μg/ml. A second incubation for one hour at ambient temperature is carried out in the presence of peroxidase-labeled anti-goat antibodies at 0.2 μg/ml diluted in PBS supplemented with 0.1% of Tween-20. […]

MUC2 glycoprotein = biological target: T2, MUC2 glycoprotein (Homo sapiens, UniProt Q02817); assay: Labeling of colonic adenoma sections, recognition of MUC2; settings: FIG. 4
T2 construct: Sections of healthy gastric and colonic mucosae and of human colorectal adenoma; from tissue; host or cells: paraffin sections of human colonic adenoma
Experimental: as §2

[2] = system: HT29-5M21 cells (MUC5AC cells); assay: USPIO binding test on colonic cell model, iron assay by relaxometry; format: cell-based, human; settings: increasing concentrations 1/2/4/8 mM iron, 1 H at 37° C.
Experimental: (§3) After 21 days of culture for HT29-5M21 cells (MUC5AC cells), the literature reports that MUC5AC is massively expressed. […] The cells are rinsed with PBS at 4° C. and then directly brought into contact with 0.5 ml of USPIO diluted in PBS, for 1 H at 37° C. (incubator, 5% CO2). The USPIOs are tested at various iron concentrations of 1/2/4/8 mM on each of the lines. After the supernatant has been drawn off, the cells are washed twice with PBS and then scraped so as to subsequently be taken up with 250 μl of PBS (twice). The suspensions are subsequently freeze-dried and then taken up with 100 μl of a 5N HCl solution for 4 H at 80° C. in a water bath. The assay is then carried out using Paris reagent, before carrying out the relaxometry (Bruiser Minispec 60 MHz). The secretion of MUC5AC by the HT29 model and the absence of secretion with HCT116 were verified in the study.

[3] = system: HCT116 cells (control cells, MUC5AC-negative); assay: USPIO binding test on colonic control cells, iron assay by relaxometry; format: cell-based, human; settings: control cells HCT116, 1/2/4/8 mM iron, 1 H at 37° C.
Experimental: as §3

[4] = system: MUC5AC-positive tumor (HT29 5M21 xenograft); assay: Molecular MRI (RARE, 7T) of tumor in mice bearing MUC5AC-positive tumor; format: in vivo
Experimental: (§4) The selected imaging parameters are the following: • RARE (rapid acquisition with relaxation enhancement) sequence (7T) • TR/TEeff=3000/48.7 ms, • RARE factor=4, • NEX=4, • Matrix=256×256 • FOV=2.3 cm • slice thickness=1 mm • 20 axial slices • spatial resolution=90 μm • acquisition time=12 min 48 s Mice: • bearing an MUC5AC-positive tumor were injected with PEG750-C60c (100 μmol/kg), • bearing an MUC5AC-positive tumor were injected with the control compound (100 μmol/kg) and • bearing an MUC5AC-negative tumor were injected with PEG750-C60c (100 μmol/kg).

[5] = system: MUC5AC-negative tumor (HCT116 xenograft); assay: Molecular MRI (RARE, 7T) of tumor in mice bearing MUC5AC-negative tumor; format: in vivo
Experimental: as §4

[6] = system: mucin MUC5AC in the stomach; assay: Molecular MRI (RARE, 7T) of the stomach of tumor-bearing mice; format: in vivo; settings: mice bearing MUC5AC-positive or -negative tumor
Experimental: as §4
MUC5AC. […] Indeed, using PEG750-C60c at equal concentration in animals having tumors with an opposite MUC5AC expression profile, but having the same mucin secretion characteristic in the stomach, a differential response was clearly observed in the tumor, but not in the stomach.

[7] = Plasma kinetics: iron concentration by relaxometry in plasma of imaged mice; format: in vivo; settings: 1 h-1 h 30 after injection
From the text: IV.2 Plasma Kinetics: Calculation of the Concentration of USPIO Contained in the Plasma of the Imaged Mice
It can be observed in table 3 that the iron concentrations are proportional to the dose of product injected.

[8] = system: HT295M21 and HCT116 xenografts; assay: Detection of USPIOs on tumor xenograft tissue after in vivo injection (anti-PEG antibody); parameters: species or system mice
From the text: (§5) In the experiments carried out, the PEG750-C60C was detected using the anti-PEG antibody on HT295M21 xenograft, on HCT116 xenograft and on a section of mouse stomach without counterstaining. The control compound was detected on a section of mouse stomach without counterstaining. The sections were visualized in parallel with an anti-MUC5AC antibody on HT295M21 and HCT116.

mouse gastric tissue = assay: Detection of USPIOs on mouse stomach sections after in vivo injection (anti-PEG antibody); settings: section of mouse stomach
From the text: as §5

Relaxivity measurements = format: physicochemical; settings: 37° C.
Experimental: […] The longitudinal relaxation time T1 is measured using an inversion recovery sequence and the transverse relaxation time T2 is measured using a CPMG technique.
The relaxation rates R1 (=1/T1) and R2 (=1/T2) were calculated for various concentrations of total metal (ranging from 0.1×10^−3 to 1×10^−3 mol/l) in aqueous solution at 37° C. The correlation between R1 or R2 as a function of the concentration is linear, and the slope represents the relaxivity r1 (R1/C) or r2 (R2/C) expressed as (1/second)×(1/mmol/l), i.e. (mM^−1·s^−1).

[9] = Particle size (PCS) and magnetic characterization; format: physicochemical
Experimental: Determined by PCS (Malvern 4700 instrument, laser 488 nm at 90°) on a sample diluted to ˜1 millimolar with water for injection filtered through 0.22 μm.

CC[C@H](C)[C@@H]1NC(=O)[C@H](CO)NC(=O)[C@@H]2CCCN2C(=O)[C@@H](N)CSSC[C@@H](C(N)=O)NC(=O)[C@H](CC(C)C)NC(=O)[C@H](CC(C)C)NC(=O)[C@@H]2CCCN2C(=O)[C@H](Cc2ccc(O)cc2)NC1=O [peptide CPSIYPLLC, Cys-Pro-Ser-He-Tyr-Pro-Leu-Leu-Cys] (H-CPSIYPLLC-NH2; disulfide 1-9; N-terminus and C-terminus assumed)
Kd (rat MUC5AC glycoprotein): 659 µM | Kd [1]: 549 µM | labeling of sections of healthy human gastric epithelia (MUC5AC): demonstrate the specificity | recognition of the MUC2 glycoprotein on sections of colonic adenoma (MUC2 glycoprotein): absence of recognition

PEG750-C60c (CPSIYPLLC; not fully specified; cysteine pairing not given here; also: PEG750 attached, site not given here, coupled to iron particle)
iron concentration on the cells [2]: significantly increases | iron concentration on the cells [3]: does not change proportionally | signal variation in the tumor (ΔSI) ([4]; 20 μmol of iron/kg, post-contrast): −10% | signal variation in the tumor (ΔSI) ([4]; 100 μmol of iron/kg): −15% | MRI image contrast of the tumor ([4]; 100 μmol/kg): negative contrast image | MRI image contrast of the tumor ([5]; 100 μmol/kg): no variation in contrast | change of signal in the tumor ([5]; same conditions (20 and 100 μmol of iron/kg)): no change or a slight increase | MRI image of the gastric region in contact with the lumen [6]: clear darkening | Iron concentration in the plasma ([7]; MUC5AC-negative mice, 20 μmol Fe/kg): 471.5 µmol/L | Iron concentration in the plasma ([7]; MUC5AC-negative mice, 20 μmol Fe/kg, listed as PEG750-C60C): 442.5 µmol/L and 350.7 µmol/L and 337 µmol/L | Iron concentration in the plasma ([7]; MUC5AC-negative mice, 100 μmol Fe/kg): 2806 µmol/L and 3638 µmol/L | Iron concentration in the plasma ([7]; MUC5AC-positive mice, 20 μmol Fe/kg): 486.8 µmol/L and 380 µmol/L | Iron concentration in the plasma ([7]; MUC5AC-positive mice, 20 μmol Fe/kg, listed as PEG750-C60C): 312.4 µmol/L | Iron concentration in the plasma ([7]; MUC5AC-positive mice, 40 μmol Fe/kg): 909.6 µmol/L | Iron concentration in the plasma ([7]; MUC5AC-positive mice, 100 μmol Fe/kg): 1555.5 µmol/L | Iron concentration in the plasma ([7]; MUC5AC-positive mice, 100 μmol Fe/kg, listed as PEG750-C60C): 2590 µmol/L and 3871 µmol/L and 1959 µmol/L | accumulation in the tumors [8]: only when they secrete MUC5AC | labeling / accumulation in the mouse gastric tissue (mouse gastric tissue): specific labeling | relaxivity r1 (Relaxivity measurements; 20 MHz): 30.54 s⁻¹ mM⁻¹ | relaxivity r1 (Relaxivity measurements; 60 MHz): 14.94 s⁻¹ mM⁻¹ | Magnetic diameter [9]: 7.2 nm | Magnetization at saturation (magn.) [9]: 70 Am^2/Kg | hydrodynamic diameter Z ave (PCS) [9]: 28 nm
